Results from US12195427B2, “MASP-2 inhibitors and methods of use” (priority 2018, dated 2025).
Each block holds one molecule with its values, some of them ahead of it.

How the values were obtained:
human α-thrombin = human α-thrombin (Homo sapiens (Human), UniProt P00734); assay: Enzymatic Assay for Thrombin (Boc-VPR-AMC); format: biochemical
MASP-2 CCP2-SP = MASP-2 CCP2-SP (Homo sapiens (Human), UniProt O00187); assay: MASP-2 co-crystallization, X-ray crystallography and structure analysis (H-bonds, van der Waals contacts); parameters: van der Waals contact distance, MASP-2 HIS 483 atom CD2 / van der Waals contact distance, MASP-2 HIS 483 atom NE2 / van der Waals contact distance, SER 654 C to compound atom / van der Waals contact distance, SER 654 O to compound atom / van der Waals contact distance, TRP 655 C to compound atom / van der Waals contact distance, MASP-2 GLY 528 atom CA / van der Waals contact distance TRP 655 atom CZ3 / van der Waals contact distance TRP 655 atom N / van der Waals contact distance TRP 655 atom CE3 / van der Waals contact distance GLY 656 atom C / van der Waals contact distance GLY 656 atom CA / van der Waals contact distance GLY 656 atom O / van der Waals contact distance, MASP-2 TYR 607 atom CD1 / van der Waals contact distance, MASP-2 PRO 606 atom O / d(C3,CA1) / d(CA1,N1)2 / d(H4,O1) / d(H4,O2) / d(O1,O2) / d(CA1,O2) / d(CA6,O1) / d(CA6,O2) / d(CA1,C5) / d(O2,H3) / d(N2,C2) / d(CA5,N2) / d(N2,C4) / d(N2,C6) / d(N2,CA3) / d(N2,O3) / d(O4,H2): unit not given beside the values;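 on Ligand-pharmacophore element distance, pharmacophore element C2: distance from averaged pharmacophore element to bound ligand; missing value means element absent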;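 on Ligand-pharmacophore element distance, pharmacophore element C3: distance from averaged pharmacophore element to bound ligand; missing value means element absent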;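 on Ligand-pharmacophore element distance, pharmacophore element C4: distance from averaged pharmacophore element to bound ligand; missing value means element absent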;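 on Ligand-pharmacophore element distance, pharmacophore element C5: distance from averaged pharmacophore element to bound ligand; missing value means element absent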
Chain of MASP-2 CCP2-SP (O00187 445-686): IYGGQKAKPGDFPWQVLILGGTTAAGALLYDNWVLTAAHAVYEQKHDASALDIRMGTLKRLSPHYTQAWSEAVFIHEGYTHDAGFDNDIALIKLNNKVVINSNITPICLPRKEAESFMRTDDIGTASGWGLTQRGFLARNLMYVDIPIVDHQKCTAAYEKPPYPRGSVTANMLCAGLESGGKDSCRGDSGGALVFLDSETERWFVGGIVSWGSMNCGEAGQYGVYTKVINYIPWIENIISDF
Chain of MASP-2 CCP2-SP (O00187 364-432 partner): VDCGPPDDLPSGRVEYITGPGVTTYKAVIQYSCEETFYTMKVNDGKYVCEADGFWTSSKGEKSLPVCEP
In short: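 Contacts and H-bonds come from partially refined soaked-crystal structures of recombinant human CCP2-SP made in E. coli, solved by molecular replacement against 1Q3X fragments. Where several ligand poses appeared, only one was analysed; listed nonbonded contacts may include possible H-bond pairings.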

[1] = Table A5-1 pharmacophore: distance between elements, S2/S1 region
[2] = Table A5-2 pharmacophore distance, S3/S4 region
[3] = Table A7-1, between pharmacophore elements of the bound compound
[4] = Table A8-6, nearest protein atom in cell to the left

Ki (human α-thrombin): > 25 µM
H-bond distance to MASP-2 ASP 627 atom OD1 (MASP-2 CCP2-SP; Table A1 (H-Bonds), ASP 627 OD1): 2.99
H-bond distance to MASP-2 ASP 627 atom OD2 (MASP-2 CCP2-SP; Table A1 (H-Bonds), ASP 627 OD2): 2.95
H-bond distance to MASP-2 GLN 665 atom O (MASP-2 CCP2-SP; Table A1 (H-Bonds), GLN 665 O): 3.31
H-bond distance to MASP-2 GLY 656 atom N (MASP-2 CCP2-SP; Table A1 (H-Bonds), GLY 656 N): 3.13
H-bond distance to MASP-2 GLY 656 atom O (MASP-2 CCP2-SP; Table A1 (H-Bonds), GLY 656 O): 2.94
H-bond distance to MASP-2 SER 654 atom O (MASP-2 CCP2-SP; Table A1 (H-Bonds), SER 654 O): 2.95
H-bond distance to MASP-2 SER 657 atom O (MASP-2 CCP2-SP; Table A1 (H-Bonds), SER 657 O): 2.77
H-bond distance to MASP-2 SER 657 atom OG (MASP-2 CCP2-SP; Table A1 (H-Bonds), SER 657 OG): 2.94
van der Waals contact distance, MASP-2 HIS 483 atom CD2 (MASP-2 CCP2-SP; Table A2-1): 3.69
van der Waals contact distance, MASP-2 TYR 607 atom CD1 (MASP-2 CCP2-SP; Table A2-4): 3.89
van der Waals contact distance, MASP-2 amino acid atom to compound atom (MASP-2 CCP2-SP; Table A2-5: TYR 607 (CE1, CE2, OH), PRO 608 (CD, CG), SER 611 (CA)): 3.89
van der Waals contact distance, MASP-2 amino acid atom to compound atom (MASP-2 CCP2-SP; Table A2-9, ARG 630, AA atoms CG, CZ): 3.14
van der Waals contact distance, VAL 653 CG1 to compound atom (MASP-2 CCP2-SP; Table A2-11): 3.81
van der Waals contact distance TRP 655 atom CZ3 (MASP-2 CCP2-SP; Table A2-13, MASP-2 TRP 655 CZ3): 3.84
van der Waals contact distance TRP 655 atom O (MASP-2 CCP2-SP; Table A2-13, MASP-2 TRP 655 O): 3.88
Ligand-pharmacophore element distance, pharmacophore element C2 (MASP-2 CCP2-SP; Table A4-1, element C2): 1.86
Ligand-pharmacophore element distance, pharmacophore element C3 (MASP-2 CCP2-SP; Table A4-1, element C3): 0
Ligand-pharmacophore element distance, pharmacophore element C4 (MASP-2 CCP2-SP; Table A4-1, element C4): 0
Ligand-pharmacophore element distance, pharmacophore element C5 (MASP-2 CCP2-SP; Table A4-1, element C5): 0
Ligand-pharmacophore element distance, pharmacophore element C6 (MASP-2 CCP2-SP; Table A4-1, element C6): 0
Ligand-pharmacophore element distance, pharmacophore element C7 (MASP-2 CCP2-SP; Table A4-1, element C7): 0
Ligand-pharmacophore element distance, pharmacophore element CA1 (MASP-2 CCP2-SP; Table A4-1, element CA1): 1.27
Ligand-pharmacophore element distance, pharmacophore element CA2 (MASP-2 CCP2-SP; Table A4-1, element CA2): 0.8
Ligand-pharmacophore element distance, pharmacophore element CA3 (MASP-2 CCP2-SP; Table A4-1, element CA3): 0
Ligand-pharmacophore element distance, pharmacophore element CA4 (MASP-2 CCP2-SP; Table A4-1, element CA4): 0
Ligand-pharmacophore element distance, pharmacophore element CA5 (MASP-2 CCP2-SP; Table A4-1, element CA5): 0
Ligand-pharmacophore element distance, pharmacophore element CA6 (MASP-2 CCP2-SP; Table A4-1, element CA6): 0
d(CA1,N1) (MASP-2 CCP2-SP; [1]): 1.85
d(CA1,O1) (MASP-2 CCP2-SP; [1]): 5.32
d(CA1,O2) (MASP-2 CCP2-SP; [1]): 5.00
d(H4,O1) (MASP-2 CCP2-SP; [1]): 4.89
d(H4,O2) (MASP-2 CCP2-SP; [1]): 4.48
d(O1,O2) (MASP-2 CCP2-SP; [1]): 3.20
d(N2,C2) (MASP-2 CCP2-SP; [2]): 3.70
d(N2,CA2) (MASP-2 CCP2-SP; [2]): 5.88
d(O2,H3) (MASP-2 CCP2-SP; [2]): 4.97
d(O2,N2) (MASP-2 CCP2-SP; [2]): 2.67
a(CA1, O1, O2) (MASP-2 CCP2-SP; Table A6-1 pharmacophore angle): 102.43
a(O1, O2, H4) (MASP-2 CCP2-SP; Table A6-1 pharmacophore angle): 140.37
A(N1, CA1, O1) a) (MASP-2 CCP2-SP; Table A6-1 pharmacophore angle, all compounds with protonatable center N1 except Methyl-amino-pyridine): 176.16
a(O1, O2, H3) (MASP-2 CCP2-SP; Table A6-2 pharmacophore angle): 148.70
a(O1, O2, N2) (MASP-2 CCP2-SP; Table A6-2 pharmacophore angle): 132.46
a(O2, N2, C2) (MASP-2 CCP2-SP; Table A6-2 pharmacophore angle): 139.14
a(O2, N2, CA2) (MASP-2 CCP2-SP; Table A6-2 pharmacophore angle): 153.47
Pharmacophore torsion angle a(H4, O1, O2, H3) (MASP-2 CCP2-SP; [3]): 47.74
Pharmacophore torsion angle a(H4, O1, O2, N2) (MASP-2 CCP2-SP; [3]): 121.97
Pharmacophore torsion angle a(N1, CA1, O2, H4) (MASP-2 CCP2-SP; [3]): −131.19
Pharmacophore torsion angle a(O1, H4, O2, CA1) (MASP-2 CCP2-SP; [3]): −89.48
Pharmacophore torsion angle a(O1, O2, N2, C2) (MASP-2 CCP2-SP; [3]): 129.30
Pharmacophore torsion angle a(O1, O2, N2, CA2) (MASP-2 CCP2-SP; Table A7-2, between pharmacophore elements of the bound compound): 134.69
Pharmacophore protein distance to MET_658 (first MET_658 column) (MASP-2 CCP2-SP; Table A8-6, 6th residue column, nearest protein atom in cell to the left): 1.94
Pharmacophore protein distance to GLY_528 (MASP-2 CCP2-SP; [4]): 3.81
Pharmacophore protein distance to PHE_529 (MASP-2 CCP2-SP; [4]): 2.97
Pharmacophore protein distance to PRO_608 (MASP-2 CCP2-SP; [4]): 3.70
Pharmacophore protein distance to SER_611 (MASP-2 CCP2-SP; [4]): 2.61
Pharmacophore protein distance to TRP_655 (MASP-2 CCP2-SP; Table A8-6, pharmacophore elements C6, CA3, O3, H1, nearest protein atom in cell to the left): 3.64
Structure (SMILES): C[C@H](NC(=O)[C@H](N)C1Cc2ccccc2C1)C(=O)NCc1ccc2nc(N)[nH]c2c1 [compound 1059]

Structure (SMILES): Cc1ccc(-c2c[nH]c(C(=O)N[C@@H](C)C(=O)NCc3ccc(C(=N)N)cc3)c2)cc1F [compound 1235, (S)—N-(1-((4-Carbamimidoylbenzyl)amino)-1-oxopropan-2-yl)-4-(3-fluoro-4-methylphenyl)-1H-pyrrole-2-carboxamide]
Ki (human α-thrombin): 10 to 25 µM
